According to ChEMBL document CHEMBL3751672, “PPAR agonists based on stilbene and its bioisosteres: biological evaluation and docking studies” (Medchemcomm, 2015):
Activity calls are given as the source filed them. The calls are words filed in the database; no cut-off is given here.

Legend:
Format in all cases: cell-based
[1] = molecular target: T1, Peroxisome proliferator-activated receptor alpha (Homo sapiens, UniProt Q07869); assay: Transactivation of human PPARalpha expressed in HEK293 cells incubated for 18 hrs by dual luciferase reporter gene assay
T1 sequence (Q07869 whole entry): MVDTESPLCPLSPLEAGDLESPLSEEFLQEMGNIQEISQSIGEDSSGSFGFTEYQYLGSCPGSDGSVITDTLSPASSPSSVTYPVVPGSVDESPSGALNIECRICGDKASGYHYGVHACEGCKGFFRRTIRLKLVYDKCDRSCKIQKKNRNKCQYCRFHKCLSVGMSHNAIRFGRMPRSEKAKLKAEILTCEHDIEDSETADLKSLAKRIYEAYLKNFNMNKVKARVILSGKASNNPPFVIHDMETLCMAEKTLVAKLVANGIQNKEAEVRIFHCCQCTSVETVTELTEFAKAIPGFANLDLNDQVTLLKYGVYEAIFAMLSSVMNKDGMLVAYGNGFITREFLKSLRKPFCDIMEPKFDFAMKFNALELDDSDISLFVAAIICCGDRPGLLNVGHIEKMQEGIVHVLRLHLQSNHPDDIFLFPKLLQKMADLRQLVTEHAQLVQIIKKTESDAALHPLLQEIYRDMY

[2] = molecular target: T2, Peroxisome proliferator-activated receptor alpha (Homo sapiens) (UniProt Q07869); assay: Transactivation of human PPARalpha expressed in HEK293 cells at 150 uM incubated for 18 hrs by dual luciferase reporter gene assay relative to gemfibrozil
T2 sequence (whole entry): T1 sequence (Q07869 whole entry)

[3] = molecular target: T2, Peroxisome proliferator-activated receptor alpha (Homo sapiens); assay: Agonist activity at PPARalpha in human HepG2 cells assessed as increase in CPT1A gene expression at 10 uM incubated for 24 hrs by real time quantitative PCR method
[4] = molecular target: T2, Peroxisome proliferator-activated receptor alpha (Homo sapiens); assay: Agonist activity at PPARalpha in human HepG2 cells assessed as increase in CPT1A gene expression at 100 uM incubated for 24 hrs by real time quantitative PCR method relative to gemfibrozil
[5] = molecular target: T2, Peroxisome proliferator-activated receptor alpha (Homo sapiens); assay: Agonist activity at PPARalpha in human HepG2 cells assessed as increase in CPT1A gene expression incubated for 24 hrs by real time quantitative PCR method
[6] = molecular target: T2, Peroxisome proliferator-activated receptor alpha (Homo sapiens); assay: Agonist activity at PPARalpha in human HepG2 cells assessed as increase in CPT1A gene expression at EC50 incubated for 24 hrs by real time quantitative PCR method
[7] = molecular target: T2, Peroxisome proliferator-activated receptor alpha (Homo sapiens); assay: Agonist activity at PPARalpha in human HepG2 cells assessed as increase in CPT1A gene expression at 10 uM incubated for 24 hrs by real time quantitative PCR method relative to gemfibrozil

EC50 [1] [µM] | Efficacy [2] [%] | SMILES | other results
3.8 | 152 | CC(C)(CCCOc1ccc(/C=C/c2ccsc2)cc1)C(=O)O | 
0.8 | 227 | CC(C)(CCCOc1ccc(/C=C/c2ccc(Cl)cc2)cc1)C(=O)O | Activity [3]: Active; fold change (FC) [2]: 2; fold change (FC) [4]: 2; Activity [5]: Dose-dependent effect
 | 17 | CC(C)c1ccc(/C=C/c2ccc(OCCCC(C)(C)C(=O)O)cc2)cc1 | 
 | 29 | CC(C)(CCCOc1ccc(/C=C/c2ccc(N)cc2)cc1)C(=O)O | 
28.4 | 164 | COc1ccc(/C=C/c2ccc(OCCCC(C)(C)C(=O)O)cc2)cc1 | 

The next lines start with the compound.

SMILES | EC50 [1] [µM] | Efficacy [2] [%] | other results
Cc1ccc(/C=C/c2ccc(OCCCC(C)(C)C(=O)O)cc2)cc1 | 3.3 | 118 | 
CC(C)(CCCOc1ccc(/C=C/c2ccc(Cl)cc2Cl)cc1Cl)C(=O)O |  | 20 | 
CC(C)(CCCOc1ccc(/C=C/c2ccc(C#N)cc2)cc1)C(=O)O |  | 23 | 
CC(C)(CCCOc1ccc(/C=C/c2ccc3ccccc3c2)cc1)C(=O)O | 90 | 123 | 
CC(C)(CCCOc1ccc(/C=C/c2ccccc2)cc1Cl)C(=O)O |  | 46 | 
CC(C)(CCCOc1ccc(/C=C/c2ccncc2)cc1)C(=O)O | 103 | 115 | 
CC(C)(CCCOc1ccc(/C=C/c2ccc(C(F)(F)F)cc2)cc1)C(=O)O | 0.76 | 205 | Activity [3]: Active; fold change (FC) [2]: 2; fold change (FC) [4]: 2; Activity [5]: Dose-dependent effect
Cc1ccc(C)c(OCCCC(C)(C)C(=O)O)c1 |  |  | Activity [6]: Active
CC(C)(CCCOc1ccc(/C=C/c2ccccc2)cc1)C(=O)O |  |  | fold change (FC) [2]: 2; fold change (FC) [7]: 2; fold change (FC) [4]: 6; Activity [5]: Dose-dependent effect
CC(C)(CCCOc1ccc(/C=C/c2ccc(Cl)cc2Cl)cc1)C(=O)O |  | 32 | 
